From ChEMBL document CHEMBL3813632, “Thiazolo[3,2-a]benzimidazol-3(2H)-one derivatives: Structure-activity relationships of selective nucleotide pyrophosphatase/phosphodiesterase1 (NPP1) inhibitors” (Bioorg Med Chem, 2016) come the findings set out here.

Active and inactive are the calls of the source. The calls are words filed in the database; no cut-off is given here.

Data set [1] concerns the target T1, Ectonucleoside triphosphate diphosphohydrolase 1 (Homo sapiens) (UniProt P49961).
T1 sequence (whole entry): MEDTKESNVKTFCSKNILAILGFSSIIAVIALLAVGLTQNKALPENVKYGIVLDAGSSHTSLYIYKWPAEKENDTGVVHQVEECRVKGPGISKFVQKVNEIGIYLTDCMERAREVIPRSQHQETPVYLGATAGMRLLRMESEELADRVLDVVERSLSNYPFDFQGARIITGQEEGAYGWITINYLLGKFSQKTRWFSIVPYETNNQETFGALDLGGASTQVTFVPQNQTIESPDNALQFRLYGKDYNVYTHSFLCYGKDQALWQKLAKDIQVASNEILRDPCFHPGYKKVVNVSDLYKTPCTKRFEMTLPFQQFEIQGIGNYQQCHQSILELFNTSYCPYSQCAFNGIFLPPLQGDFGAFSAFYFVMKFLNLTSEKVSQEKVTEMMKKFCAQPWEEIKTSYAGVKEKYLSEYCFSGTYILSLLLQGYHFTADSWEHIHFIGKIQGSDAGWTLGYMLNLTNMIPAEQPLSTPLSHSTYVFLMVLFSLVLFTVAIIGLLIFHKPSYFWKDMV
The data set can be described thus: Inhibition of human recombinant soluble NTPDase1 expressed in CHO cells using ATP as substrate at 10 to 1000 uM preincubated with substrate followed by protein addition and subsequent incubation for 30 mins by capillary electrophoresis.

The nature of data set [2]: Drug metabolism of the compound in MgCl2/CaCl2/CHES buffer assessed as 2-hydroxy-3-(5-iodofuran-2-yl)-1-(2-thioxo-2,3-dihydro-1H-benzo[d]imidazol-1-yl)prop-2-en-1-one metabolite formation at pH 9 after 24 hrs by LC-MS analysis. The data set is classed as physicochemical. The settings on record: pH 9, 24 h.
Data set [3] is described as follows: Chemical stability of the compound assessed as compound remaining at pH 9 at 37 degC after 24 hrs by HPLC-MS analysis. Format: physicochemical. Particulars: buffer, read-out: Stability.
In data set [4] the target is T2, Ectonucleoside triphosphate diphosphohydrolase 3 (Homo sapiens) (UniProt O75355).
T2 sequence (whole entry): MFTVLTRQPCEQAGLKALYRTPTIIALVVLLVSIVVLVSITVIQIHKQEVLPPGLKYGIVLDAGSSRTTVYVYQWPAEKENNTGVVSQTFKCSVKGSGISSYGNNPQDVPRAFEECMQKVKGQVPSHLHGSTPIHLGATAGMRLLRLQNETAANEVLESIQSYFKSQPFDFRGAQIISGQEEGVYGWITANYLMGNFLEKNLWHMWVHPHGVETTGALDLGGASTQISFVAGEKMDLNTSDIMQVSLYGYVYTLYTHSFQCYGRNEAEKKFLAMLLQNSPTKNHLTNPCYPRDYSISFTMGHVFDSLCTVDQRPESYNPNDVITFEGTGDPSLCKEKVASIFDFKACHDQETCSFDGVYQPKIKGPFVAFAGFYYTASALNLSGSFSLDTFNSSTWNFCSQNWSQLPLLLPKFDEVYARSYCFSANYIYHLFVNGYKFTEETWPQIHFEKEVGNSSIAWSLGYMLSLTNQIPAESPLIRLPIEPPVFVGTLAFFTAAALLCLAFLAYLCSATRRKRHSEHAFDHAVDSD
Description: Inhibition of human recombinant NTPDase3 expressed in NS0 cells using ATP as substrate at 10 to 1000 uM preincubated with substrate followed by protein addition and subsequent incubation for 30 mins by capillary electrophoresis.

The target in another data set is Autotaxin (Homo sapiens) (UniProt Q13822). Description: Inhibition of human recombinant NPP2 expressed in insect SF9 cells using 1-oleoylsn-glycero-3-phosphocholine as substrate at >100 uM preincubated with substrate followed by protein addition and subsequent incubation for 60 mins by colorimetric analysis.
Data set [5] is described as follows: Chemical stability of the compound at pH 9 at 25 degC after 8 hrs by HPLC-MS analysis. The data set is classed as physicochemical. The settings on record: buffer, pH 9, 8 h.
Data set [6] can be described thus: Chemical stability of the compound assessed as compound remaining at pH 9 at 25 degC after 24 hrs by HPLC-MS analysis. The data set is classed as physicochemical. The settings on record: buffer, read-out: Stability.
In data set [7] the target is T3, Ectonucleotide pyrophosphatase/phosphodiesterase family member 1 (Homo sapiens, UniProt P22413).
T3 sequence (P22413 whole entry): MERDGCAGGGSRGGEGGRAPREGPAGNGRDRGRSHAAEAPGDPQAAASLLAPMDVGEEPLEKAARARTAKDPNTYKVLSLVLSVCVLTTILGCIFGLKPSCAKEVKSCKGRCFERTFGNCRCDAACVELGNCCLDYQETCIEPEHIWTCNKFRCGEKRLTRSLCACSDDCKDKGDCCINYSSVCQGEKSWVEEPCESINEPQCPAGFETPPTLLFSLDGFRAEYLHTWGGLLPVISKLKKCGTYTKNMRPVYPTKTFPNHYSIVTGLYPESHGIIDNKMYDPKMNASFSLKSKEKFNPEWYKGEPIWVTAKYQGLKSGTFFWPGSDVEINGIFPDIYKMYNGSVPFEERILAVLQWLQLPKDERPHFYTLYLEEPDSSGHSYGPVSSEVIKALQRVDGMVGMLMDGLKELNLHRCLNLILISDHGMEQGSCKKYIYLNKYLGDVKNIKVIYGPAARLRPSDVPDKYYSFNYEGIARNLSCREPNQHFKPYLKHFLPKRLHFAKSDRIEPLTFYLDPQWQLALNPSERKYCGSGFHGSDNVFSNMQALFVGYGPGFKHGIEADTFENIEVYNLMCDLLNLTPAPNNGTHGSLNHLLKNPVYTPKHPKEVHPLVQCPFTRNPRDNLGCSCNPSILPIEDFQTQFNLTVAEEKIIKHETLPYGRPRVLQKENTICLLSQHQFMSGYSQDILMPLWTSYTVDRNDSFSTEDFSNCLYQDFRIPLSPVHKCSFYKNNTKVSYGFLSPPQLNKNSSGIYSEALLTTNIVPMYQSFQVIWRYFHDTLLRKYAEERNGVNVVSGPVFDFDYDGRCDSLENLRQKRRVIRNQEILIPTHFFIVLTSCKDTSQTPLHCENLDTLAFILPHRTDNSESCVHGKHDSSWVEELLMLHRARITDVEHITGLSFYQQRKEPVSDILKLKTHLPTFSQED
Description: Inhibition of human recombinant NPP1 expressed in insect SF9 cells using ATP as substrate preincubated with substrate followed by protein addition and subsequent incubation for 30 mins by capillary electrophoresis.

Data set [8] in a line: Chemical stability of the compound assessed as compound remaining at pH 7.4 at 25 to 37 degC after 8 to 24 hrs by HPLC-MS analysis. Format: physicochemical. The settings on record: buffer.
Data set [9] concerns the target T4, Ectonucleotide pyrophosphatase/phosphodiesterase family member 1 (Homo sapiens) (UniProt P22413).
T4 sequence (whole entry): T3 sequence (P22413 whole entry)
Description: Uncompetitive inhibition of human recombinant NPP1 expressed in insect SF9 cells using ATP as substrate up to 2.8 uM preincubated with substrate followed by protein addition and subsequent incubation for 30 mins by Hanes-Woolf plot analysis.

For data set [10], the species on record is Homo sapiens. The data set can be described thus: Selectivity ratio of Ki for human recombinant soluble NTPDase2 to Ki for human recombinant NPP1.
The species named for data set [11] is Homo sapiens. Description: Selectivity ratio of Ki for human recombinant soluble NTPDase1 to Ki for human recombinant NPP1.
Data set [12] is described as follows: Retention time of the compound in MgCl2/CaCl2/CHES buffer at pH 9 by LC-MS analysis. The data set is classed as physicochemical.
The species entered for data set [13] is Homo sapiens. Description: Selectivity ratio of Ki for human recombinant TNAP to Ki for human recombinant NPP1.

For `O=c1/c(=C/c2ccc(I)o2)sc2nc3ccccc3n12`, the inhibition entry in data set [1] and in [4] was “inactive” in each case. The Drug metabolism entry in data set [2] is on record as “metabolite_detected”. Further, the remaining at 24 h was determined as 27.4% in [3] and 52.4% in data set [6]. In addition, the inhibition result (on Autotaxin (Homo sapiens); in data set [9]) was “Active” each time. The Stability result in data set [5] and in data set [8] was “Stable” throughout. In data set [7], the Ki worked out at 467 nM. For the same molecule, the Ratio Ki in the data set listed under Homo sapiens [10], in the data set listed under Homo sapiens [11] and in the data set filed under Homo sapiens [13] was 1000 throughout. This molecule had a Retention_time in data set [12] of 8.2 min.

As usually defined, the Ki is a dissociation constant, usually derived from enzyme kinetics or from competition with a known ligand.
